Results published in US11091511B2, “Panaxdiol-type ginsenoside derivative, preparation method therefor and use thereof” (ARMY MEDICAL UNIVERSITY, priority 2016, dated 2021).
Marks after values point to notes of the source that are not given here.

What was measured:
[1] = system: TNF-α; assay: Local TNF-α level in the arteries of apoE-/- mice (Millipore liquid phase chip); assay type: in vivo, mouse; details: high-fat diet, intragastric 15 weeks, compounds 30 mg/(kg·d), simvastatin 10 mg/(kg·d), x ± s, n = 5, saline control 25.58 ± 6.44
Text: (§1) The effects of the compounds prepared in Examples 1-30 of the present invention on the percentages of areas of atherosclerotic plaque formation to the area of the entire artery in apoE−/− mice with a high-fat diet and the levels of low-density lipoprotein cholesterol and the levels of high-density lipoprotein, the specific steps are as follows: 1. animals: 160 ten-week-old, healthy and clean-grade apoE−/− mice (purchased from Peking University Experimental Animal Center), males, weight: 22-25 g, were housed in separate cages in a sterile laminar feeding room and fed freely. The mice were fed by a high-fat diet (conventional feed+0.15% cholesterol+21% lard) for 25 weeks, the room temperature was kept at 24° C., relative humidity: 50%, illumination time 7:30-19:30. 2. Grouping, administration method: after 10 weeks of feeding, the animals were divided into the following 32 groups (n=5) by weight in a balanced and random manner, and killed 15 weeks after administration. Normal saline control group: normal saline, intragastric administration. Positive control group: simvastatin 10 mg/(kg·d), intragastric administration. The compound groups prepared in Examples 1-30 of the present invention (30 groups in total): each was intragastric administered 30 mg/(kg·d). (3) Determination of TNF-α level: Millipore liquid phase chip method was used for the determination (Mcytomag-70K-3, Mouse Cytokine/Chemokine Magnetic Bead Panel). Data were expressed as x±s, and SPSS 10.0 line single-factor analysis of variance was performed among groups, a significant difference was indicated when p<0.05.

[2] = system: apoE−/− mice; assay: Atherosclerotic plaque area to total aortic area in apoE-/- mice on high-fat diet (Sudan IV staining); assay type: in vivo, mouse; details: intragastric 15 weeks, compounds 30 mg/(kg·d), simvastatin 10 mg/(kg·d), x ± s, n = 5, saline control 14.67 ± 3.58
Text: as §1, with “(1) Analysis” for “(3) Determination”, “the area of atherosclerotic plaque and its percentage to total area: after the animals were killed, the aortas were separated, from the roots of the aortas to the terminal bifurcations of the abdominal aortas. After formalin fixation, the aortas were stained with Sudan IV, the red stained parts were the areas of atherosclerotic lesions. The percentage of the area of the lesion area to total area” for “TNF-α level: Millipore liquid phase chip method”, “calculated using Image Pro Plus 5.0 software.” for “used for the determination (Mcytomag-70K-3, Mouse Cytokine/Chemokine Magnetic Bead Panel).”

[3] = system: RAW264.7 cells; assay: RAW264.7 cell survival rate by CCK8 method; assay type: cell-based, mouse; details: compound 10 prnol/L, 0.1% DMSO, CCK8, x ± s, n = 3, normal saline control = 1
Description: In order to further verify the toxicities of the compounds prepared in Examples 1-30 of the present invention, the mouse macrophage cell line RAW264.7 was cultured, and the compounds prepared in Examples 1-30 of the invention were prepared to a concentration of […] using culture medium, wherein the solvent was normal saline, the co-solvent was dimethyl sulfoxide (DMSO, the final concentratoin was 0.1%), and a 0.1% DMSO saline control group was provided. The cell survival rate was determined by CCK8 method. The data were expressed as x±s. SPSS 10.0 line single-factor analysis of variance was performed among groups. The difference was significant when p<0.05.

[4] = system: apoE−/− mice; assay: Blood lipids (LDL-C, HDL-C) in apoE-/- mice on high-fat diet; assay type: in vivo, mouse; details: apoE-/- mice serum, intragastric 15 weeks, compounds 30 mg/(kg·d), simvastatin 10 mg/(kg·d), x ± s; for HDL-C: n = 5, saline control 3.74 ± 0.62; for LDL-C: n = 5, saline control 7.33 ± 1.03
Text: The effects of the compounds prepared in Examples 1-30 of the present invention on the percentages of areas of atherosclerotic plaque formation to the area of the entire artery in apoE−/− mice with a high-fat diet and the levels of low-density lipoprotein cholesterol and the levels of high-density lipoprotein, the specific steps are as follows:
1. animals: 160 ten-week-old, healthy and clean-grade apoE−/− mice (purchased from Peking University Experimental Animal Center), males, weight: 22-25 g, were housed in separate cages in a sterile laminar feeding room and fed freely. The mice were fed by a high-fat diet (conventional feed+0.15% cholesterol+21% lard) for 25 weeks, the room temperature was kept at 24° C., relative humidity: 50%, illumination time 7:30-19:30.
2. Grouping, administration method:
after 10 weeks of feeding, the animals were divided into the following 32 groups (n=5) by weight in a balanced and random manner, and killed 15 weeks after administration.
Normal saline control group: normal saline, intragastric administration.
Positive control group: simvastatin 10 mg/(kg·d), intragastric administration.
The compound groups prepared in Examples 1-30 of the present invention (30 groups in total): each was intragastric administered 30 mg/(kg·d).
(2) Determination of the levels of total cholesterol (TC), low-density cholesterol lipoprotein (LDL-C) and high-density lipoprotein cholesterol (HDL-C): using ROCHE 7060 automatic biochemical analyzer for the determination.
Data were expressed as x±s, and SPSS 10.0 line single-factor analysis of variance was performed among groups, a significant difference was indicated when p<0.05.

[5] = system: RAW264.7 cell-derived foam cells; assay: Formation of RAW264.7 cell-derived foam cells (ox-LDL, oil red O, absorbance 490 nm); assay type: cell-based, mouse; details: 48 hours, model group = 100%, x ± s, n = 3
Description: The effects of the compounds prepared in Examples 1-30 of the present invention on the formation of RAW264.7 cell-derived foam cells, the specific steps are as follows:
1. Cell culture and foam cell model establishment:
RAW264.7 cells were cultured in DMEM culture medium with high glucose level (GIBCO) to a cell concentration of 1×10^6, planted in a 6-well plate, and 60 mg/L of ox-LDL (oxidized modified low-density lipoprotein, Peking Union Medical College) was added, foam cells were obtained after 48 hours of incubation.
2. Grouping and index detection:
The obtained foam cells were divided into 61 groups, 3 well plates were included in one group. After the treatment by adding the drugs (100 μL/well) for 48 hours, the medium was discarded, and after oil red 0 staining, the excess amount of oil red 0 was washed away. The cells were dissolved in isopropanol and the absorbance values were measured at 490 nm. The OD value of the model group was 100%, and the OD value of each group corrected by the number of cells was compared with the model group to obtain the ratio of intracellular lipid content. The larger the value, the more intracellular lipids, the higher the degree of formation of foam cells.
Normal saline control group: normal saline
Low dose groups of the compounds prepared in Examples 1-30 of the present invention:
10 μmol/L (solvents were normal saline).
High dose groups of compounds prepared in Examples 1-30 of the present invention: 30 μmol/L (solvents were normal saline).
Data were expressed as x±s, and SPSS 10.0 line single-factor analysis of variance was performed amoung groups, a significant difference was indicated when p<0.05.

SMILES: COC(=O)CC[C@H](NCCC[C@](C)(O[C@H]1O[C@H](COC(C)=O)[C@@H](OC(C)=O)[C@H](OC(C)=O)[C@H]1OC(C)=O)C1CC[C@]2(C)[C@@H]1C(OC(C)=O)CC1[C@@]3(C)CC[C@H](OC(C)=O)C(C)(C)C3CC[C@]12C)C(=O)OC (some centres unmarked) [Compound 8]
- TNF-α level (ng/g) [1]: 12.67 ± 3.11 ^a ng/g
- Plaque area/total aorta area (%) [2]: 9.31 ± 3.58 ^a %
- Cell Survival Rate [3]: 0.82 ± 0.06
- HDL-C [4]: 5.63 ± 0.84 ^a mmol/L
- LDL-C [4]: 4.34 ± 1.19 ^a mmol/L
- Foam cell formation (%) ([5]; dose 10 μmol/L): 73 ± 16 ^a %
- Foam cell formation (%) ([5]; dose 30 μmol/L): 51 ± 17 ^a %

SMILES: COC(=O)CNCCC[C@](C)(O[C@H]1O[C@H](COC(C)=O)[C@@H](OC(C)=O)[C@H](OC(C)=O)[C@H]1OC(C)=O)C1CC[C@]2(C)[C@@H]1C(OC(C)=O)CC1[C@@]3(C)CC[C@H](OC(C)=O)C(C)(C)C3CC[C@]12C (some centres unmarked) [Compound 9]
- TNF-α level (ng/g) [1]: 12.85 ± 4.17 ^a ng/g
- Plaque area/total aorta area (%) [2]: 10.55 ± 2.19 ^a %
- Cell Survival Rate [3]: 0.85 ± 0.07
- HDL-C [4]: 4.41 ± 0.67 ^a mmol/L
- LDL-C [4]: 6.84 ± 0.85 mmol/L
- Foam cell formation (%) ([5]; dose 10 μmol/L): 79 ± 23%
- Foam cell formation (%) ([5]; dose 30 μmol/L): 65 ± 17 ^a %

SMILES: CCOC(=O)CCNCCC[C@](C)(O[C@H]1O[C@H](COC(C)=O)[C@@H](OC(C)=O)[C@H](OC(C)=O)[C@H]1OC(C)=O)C1CC[C@]2(C)[C@@H]1C(OC(C)=O)CC1[C@@]3(C)CC[C@H](OC(C)=O)C(C)(C)C3CC[C@]12C (some centres unmarked) [Compound 10]
- TNF-α level (ng/g) [1]: 11.66 ± 2.65 ^a ng/g
- Plaque area/total aorta area (%) [2]: 8.52 ± 3.25 ^a %
- Cell Survival Rate [3]: 0.82 ± 0.13
- HDL-C [4]: 4.50 ± 0.94 ^a mmol/L
- LDL-C [4]: 6.54 ± 1.06 mmol/L
- Foam cell formation (%) ([5]; dose 10 μmol/L): 69 ± 18 ^a %
- Foam cell formation (%) ([5]; dose 30 μmol/L): 45 ± 21 ^a %

SMILES: CCOC(=O)C(NCCC[C@](C)(O[C@H]1O[C@H](COC(C)=O)[C@@H](OC(C)=O)[C@H](OC(C)=O)[C@H]1OC(C)=O)C1CC[C@]2(C)[C@@H]1C(OC(C)=O)CC1[C@@]3(C)CC[C@H](OC(C)=O)C(C)(C)C3CC[C@]12C)C(=O)OCC (some centres unmarked) [Compound 11]
- TNF-α level (ng/g) [1]: 12.33 ± 5.81 ^a ng/g
- Plaque area/total aorta area (%) [2]: 9.68 ± 3.52 ^a %
- Cell Survival Rate [3]: 0.84 ± 0.12
- HDL-C [4]: 4.93 ± 0.58 ^a mmol/L
- LDL-C [4]: 6.59 ± 1.56 mmol/L
- Foam cell formation (%) ([5]; dose 10 μmol/L): 72 ± 14 ^a %
- Foam cell formation (%) ([5]; dose 30 μmol/L): 65 ± 15 ^a %

SMILES: COC(=O)[C@H](Cc1ccccc1)NCCC[C@](C)(O[C@H]1O[C@H](COC(C)=O)[C@@H](OC(C)=O)[C@H](OC(C)=O)[C@H]1OC(C)=O)C1CC[C@]2(C)[C@@H]1C(OC(C)=O)CC1[C@@]3(C)CC[C@H](OC(C)=O)C(C)(C)C3CC[C@]12C (some centres unmarked) [Compound 12]
- TNF-α level (ng/g) [1]: 18.27 ± 5.24 ^a ng/g
- Plaque area/total aorta area (%) [2]: 10.23 ± 3.54 ^a %
- Cell Survival Rate [3]: 0.87 ± 0.16
- HDL-C [4]: 4.44 ± 0.83 ^a mmol/L
- LDL-C [4]: 5.27 ± 1.74 ^a mmol/L
- Foam cell formation (%) ([5]; dose 10 μmol/L): 84 ± 15%
- Foam cell formation (%) ([5]; dose 30 μmol/L): 68 ± 21 ^a %

SMILES: COC(=O)[C@@H](Cc1ccc(O)cc1)NCCC[C@](C)(O[C@H]1O[C@H](COC(C)=O)[C@@H](OC(C)=O)[C@H](OC(C)=O)[C@H]1OC(C)=O)C1CC[C@]2(C)[C@@H]1C(OC(C)=O)CC1[C@@]3(C)CC[C@H](OC(C)=O)C(C)(C)C3CC[C@]12C (some centres unmarked) [Compound 13]
- TNF-α level (ng/g) [1]: 15.65 ± 6.74 ^a ng/g
- Plaque area/total aorta area (%) [2]: 9.44 ± 3.24 ^a %
- Cell Survival Rate [3]: 0.85 ± 0.12
- HDL-C [4]: 5.29 ± 1.18 ^a mmol/L
- LDL-C [4]: 5.07 ± 0.99 ^a mmol/L
- Foam cell formation (%) ([5]; dose 10 μmol/L): 71 ± 14 ^a %
- Foam cell formation (%) ([5]; dose 30 μmol/L): 47 ± 23 ^a %

SMILES: COC(=O)[C@H](Cc1c[nH]cn1)NCCC[C@](C)(O[C@H]1O[C@H](COC(C)=O)[C@@H](OC(C)=O)[C@H](OC(C)=O)[C@H]1OC(C)=O)C1CC[C@]2(C)[C@@H]1C(OC(C)=O)CC1[C@@]3(C)CC[C@H](OC(C)=O)C(C)(C)C3CC[C@]12C (some centres unmarked) [Compound 14]
- TNF-α level (ng/g) [1]: 16.92 ± 5.04 ^a ng/g
- Plaque area/total aorta area (%) [2]: 9.34 ± 3.01 ^a %
- Cell Survival Rate [3]: 0.83 ± 0.06
- HDL-C [4]: 4.39 ± 0.59 ^a mmol/L
- LDL-C [4]: 5.58 ± 1.11 ^a mmol/L
- Foam cell formation (%) ([5]; dose 10 μmol/L): 78 ± 18 ^a %
- Foam cell formation (%) ([5]; dose 30 μmol/L): 66 ± 16 ^a %

SMILES: COC(=O)[C@H](CC1CNc2ccccc21)NCCC[C@](C)(O[C@H]1O[C@H](COC(C)=O)[C@@H](OC(C)=O)[C@H](OC(C)=O)[C@H]1OC(C)=O)C1CC[C@]2(C)[C@@H]1C(OC(C)=O)CC1[C@@]3(C)CC[C@H](OC(C)=O)C(C)(C)C3CC[C@]12C (some centres unmarked) [Compound 15]
- TNF-α level (ng/g) [1]: 16.07 ± 3.67 ^a ng/g
- Plaque area/total aorta area (%) [2]: 10.22 ± 2.19 ^a %
- Cell Survival Rate [3]: 0.88 ± 0.04
- HDL-C [4]: 4.12 ± 0.82 ^a mmol/L
- LDL-C [4]: 6.54 ± 1.36 mmol/L
- Foam cell formation (%) ([5]; dose 10 μmol/L): 68 ± 12 ^a %
- Foam cell formation (%) ([5]; dose 30 μmol/L): 56 ± 22 ^a %
